Assay results reported in patent publication US10214502B2, “Method of inhibiting apolipoprotein-E expression while increasing expression of at least one of LDL-receptor protein or AbcA1 protein comprising administering a small compound” (California State University, Fresno, priority 2016, dated 2019).
“Also recorded” adds a separate entry of the source.

Assays:
AbcA1 = test: SDS-PAGE/Western blot of AbcA1 expression in E3 astrocyte cells; format: cell-based, mouse; details: 10 μM, 24 hrs, Western blot, FIGS. 6 and 7
Excerpt: (§1) Western blot protocol and analysis was used to determine the LDLR levels in the E3 astrocyte cells. The western blot, otherwise known as a protein immunoblot, is a widely used analytical technique used to detect specific proteins in a cell culture or tissue sample. It uses gel electrophoresis to separate proteins by 3-D structure or denatured proteins by the length of the polypeptide. The proteins are then transferred to a membrane (typically nitrocellulose or PVDF), where they are stained with antibodies specific to the target protein. […] FIGS. 6 and 7 show gel images showing the effects the claimed compounds have on the target proteins. The protein bands show the presence and amount of each target protein present in the media from treated cells (compound numbers shown in the column headers).
(§2) In this case, after the 24-hour culture period, the treated cell media from cells treated with each respective compound were run by electrophoresis on polyacrylamide gel containing sodium dodecyl sulfate (SDS). The proteins from the SDS-PAGE process were then transferred to a nitrocellulose […] and stained.
(§3) FIGS. 6 and 7 show the presence of the following proteins in mouse E3 astrocyte cells: AbcA1, LDLR, ApoE3, and GAPDH. The GAPDH protein serves as the loading control protein for the western blot analysis. For each of the claimed compounds, FIGS. 6 and 7 show three samples run to determine the presence and amount of each indicated protein. The three samples for each treatment compound are indicated by the line under the compound number—the line stretches across three columns of protein bands.
AbcA1 protein plays a key role in regulating cholesterol in biological systems and therefore affects amyloid beta plaque formation. The goal of the biological screen (results shown in FIGS. 6 and 7) was to find compounds that prevent amyloid beta (Aβ) plaque formation, one of the deleterious causes of Alzheimer's Disease.
(§4) The E3 astrocyte cells (1.6×10^4 cells/96-well plate) were grown for 1 day in RPMI, followed by a 24 hour equilibration in serum-free Opti-MEM (Life Technologies). Treatments were carried out in triplicate with […] of fresh Opti-MEM containing 10 μM of compound or vehicle (0.1% DMSO) for 24 hours. After the incubation time, the cellular media was collected as samples.
(§5) The collected samples were prepared for SDS-PAGE and western blot analysis by centrifuging and then extracting the protein by TCA-precipitation. The extracted protein was then resuspended in a Tris buffer.
(§6) After incubation and collection, the samples were run on a SDS-polyacrylamide gel (10% SDS). The SDS-polyacrylamide gel comprises the following:
(§7) Each sample was prepared to run on the SDS-polyacrylamide gel. About 20 μL of each sample was prepared to be run in the gel. The samples were prepared comprising the following:
(§8) The SDS-PAGE process was run with SDS-PAGE running buffer (Tris base, glycine, and 10% SDS) at 150 V until the dye front reached the bottom of the gel.
(§9) For the western blot portion of the analysis, the separated protein bands in the gel are then transferred to a nitrocellulose membrane by methods well known in the art. Following the western blot transfer, the blot is rinsed several times with dH2O to remove the salts. After blocking unreacted sites on the nitrocellulose membrane, all protein bands are stained with 0.5% Ponceau S (0.5 g Ponceau S, 1 ml Glacial HAc, 99 ml dH2O) and the target protein antibody.
(§10) The antibodies used for staining AbcA1 were obtained from Novus (NB100-2068). The antibodies used for staining LDLR were obtained from MBL International (JM-3839). The antibodies used for staining intracellular apoE were obtained from Meridian Life Science (K74180B). The antibodies used for staining GAPDH were obtained from Santa Cruz (sc-25778).

apoE3 = test: ELISA of apoE3 levels in conditioned media of compound-treated mouse cortical astrocyte cells; format: cell-based; details: 10 μM compound, 24 hours, normalized to cell protein, relative to DMSO treated cells
Description: ApoE inhibition can be readily determined by any one of several assays and techniques known to those of ordinary skill in the art, including the enzyme-linked immunosorbant assay (ELISA). In the experimental results shown in Table 2 and FIG. 5, the ELISA assay was carried out on cortical astrocyte cells from mice. Astrocyte cells produce apoE, LDLR and AbcA1 proteins.
The experiments involved treating mouse cortical astrocyte cells with the claimed compounds at 10 μM concentration for an incubation time of 24 hrs. DMSO solvent was used as a negative control, because the compounds were dissolved in DMSO when applied to the cells.
The ELISA technique involves immobilizing an apoE-specific capture antibody to a 96-well plate, addition of sample (conditioned medium from mouse cortical astrocyte cells treated with the compound for 24 hours), and detection of the bound apoE using a second apoE-specific biotinylated antibody and streptavidin-HRP.
The Mabtech ELISA kit detects the presence of the three apoE isoforms: apoE2, apoE3, and apoE4.
To obtain the data shown in Table 2 and FIG. 5, the mouse cortical astrocyte cells were maintained in DMEM medium (Invitrogen) supplemented with 10 mM HEPES, 1 mM sodium pyruvate, 4.5 g/L glucose, 1% penicillin/streptomycin, and 10% fetal bovine growth serum (Invitrogen) at 37° C., with 5% CO2.
The cells (6×10^4 cells/24-well plate) were grown for 1 day in RPMI, followed by a 24 hour equilibration in serum-free Opti-MEM (Life Technologies). Treatments were carried out in triplicate with […] of fresh Opti-MEM containing 10 μM of compound or vehicle (0.1% DMSO) for 24 hours. […] ApoE concentration in the sample was calculated based on a standard curve derived using known amounts of purified apoE (from Biodesign).
The protein levels in the cells in the 24-well plates were measured using BCA Protein Assay Kit (from Pierce) and used to normalize the data. […] Sample apoE3 concentrations were represented relative to the DMSO treated cells.
The bars in FIG. 5 reflect the respective mean level apoE3 in the media for each compound with an indication of one […].

LDLR = test: SDS-PAGE/Western blot of LDLR expression in E3 astrocyte cells; format: cell-based, mouse; details: 10 μM, 24 hrs, Western blot, FIGS. 6 and 7
Description: Experiments were set up to test whether the claimed compounds increase LDLR expression in cortical astrocyte cells. The experiments involved treating mouse cortical astrocyte cells (E3 astrocyte cells) with the claimed compounds at 10 μM concentration for an incubation time of 24 hrs. DMSO solvent was used as a negative control, because the compounds were dissolved in DMSO when applied to the cells.
as §1, §2, §3, §4, §5, §6, §7, §8, §9, §10

intracellular apoE = test: SDS-PAGE/Western blot of intracellular apoE levels in E3 astrocyte cells; format: cell-based, mouse; details: 10 μM, 24 hrs, Western blot, FIGS. 6 and 7
Excerpt: as §1, §2
FIGS. 6 and 7 show the presence of the following proteins in mouse E3 astrocyte cells: AbcA1, LDLR, ApoE3, and GAPDH. […]
Intracellular apoE levels as measured in FIGS. 6 and 7 are the amounts of apoE inside of cells. […]

Row | Compound | AbcA1 expression compared to the DMSO control (AbcA1) | ApoE3 Levels in Cell Media, Average of Three Tests (apoE3) | ApoE3 Levels in Cell Media, Test 1 (apoE3) | ApoE3 Levels in Cell Media, Test 2 (apoE3) | ApoE3 Levels in Cell Media, Test 3 (apoE3) | LDLR expression (amount of LDLR protein) compared to the DMSO control (LDLR) | intracellular apoE expression/levels compared to the DMSO control (intracellular apoE)
1 | O=S(=O)(c1ccc(-c2ccccc2)cc1)N1CCOCC1 [Compound 134] | increase | 84.75 % of the DMSO control | 81.07 % of the DMSO control | 90.3 % of the DMSO control | 82.89 % of the DMSO control | increased | –
2 | O=S(=O)(NCc1ccccc1)c1cccc2ccccc12 [Compound 125] | increase | 88.78 % of the DMSO control | 82.44 % of the DMSO control | 91.39 % of the DMSO control | 92.51 % of the DMSO control | increased | –
3 | CCN(CC)Cc1ccc2ccccc2c1 [Compound 140] | increases AbcA1 expression significantly; also recorded: increase | 90.9673 % of the DMSO control | 91.46 % of the DMSO control | 97.9104 % of the DMSO control | 83.54 % of the DMSO control | increased; also recorded: increasing LDLR expression slightly | –
4 | CCCCN(CCCC)S(=O)(=O)c1cccc2ccccc12 [Compound 127, naphthalene-1-sulfonic acid dibutylamide] | increases | 75.73 % of the DMSO control | 75.36 % of the DMSO control | 78.18 % of the DMSO control | 73.66 % of the DMSO control | increased | decreasing
